Reference: US20240067693A1, “POLYPEPTIDES AND USES THEREOF” (MEDIMMUNE LIMITED, priority 2020, published 2024)
Numbered stars: 1 amine (or outer) side, 2 acyl side, 3 side chain; on linkers, the order of the positions; unused ones are H or OH. Bridge positions count the residues as written; N and C are the ends. Square brackets hold non-standard residues; d marks the D form. Side chains are listed from the residue outwards. Peptide text beside a SMILES is read from it. * marks the point of attachment. C18 diacid = O=C(O)CCCCCCCCCCCCCCCCC(=O)*; γGlu = O=C(O)[C@H](CCC(=O)[*:2])N[*:1]; Aib = CC(C)(N)C(=O)O

How the values were obtained:
[1] = biological target: T1, human calcitonin receptor (hCTR) (Homo sapiens, UniProt P30988); assay: cAMP production in 1321N1 cells with stable recombinant expression of human calcitonin receptor (hCTR); assay type: cell-based; conditions: cAMP, 1321N1 cells, assay buffer with 0.1% BSA; read-out: EC50 (pM) hCTR
T1 construct: expressed in transfected cells
T1 sequence (P30988 25-474): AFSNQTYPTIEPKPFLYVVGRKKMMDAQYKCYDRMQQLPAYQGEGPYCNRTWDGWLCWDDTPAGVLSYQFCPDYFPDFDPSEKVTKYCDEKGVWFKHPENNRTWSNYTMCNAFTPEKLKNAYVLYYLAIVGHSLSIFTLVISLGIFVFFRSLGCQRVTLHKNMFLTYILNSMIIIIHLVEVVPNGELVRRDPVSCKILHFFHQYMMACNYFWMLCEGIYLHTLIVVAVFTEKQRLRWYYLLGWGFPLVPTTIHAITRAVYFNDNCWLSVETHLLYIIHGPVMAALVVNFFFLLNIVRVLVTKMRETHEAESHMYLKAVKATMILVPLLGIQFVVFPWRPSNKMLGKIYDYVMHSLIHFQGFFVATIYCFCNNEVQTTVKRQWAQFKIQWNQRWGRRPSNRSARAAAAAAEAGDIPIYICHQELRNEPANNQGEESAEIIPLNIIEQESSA
Method in brief: (§1)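 EC50 values come from 4-parameter logistic fits of HTRF cAMP signal, normalised to maximal calcitonin or amylin effect. Peptides were tested in duplicate for 30 min at RT in IBMX-containing (0.5 mM) BSA/HEPES buffer pH 7.4 on stable 1321N1 (human CTR, AMYR3) or HEK (rat CTR, AMYR3) lines.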

[2] = biological target: T2, human amylin receptor (calcitonin receptor co-expressed with receptor activity modifying protein, RAMP3) (hAMYR3) (Homo sapiens, UniProt O60896+P30988); assay: cAMP production in 1321N1 cells with stable recombinant expression of human amylin receptor (hAMYR3); assay type: cell-based; conditions: for Ratio (selectivity hAMYR vs hCTR, ratio of EC50 values at the two receptors): EC50 hCTR / EC50 hAMYR3; for EC50: cAMP, 1321N1 cells, assay buffer with 0.1% BSA, read-out: EC50 (pM) hAMYR3
T2 construct: expressed in transfected cells
T2 sequence (P30988 25-474): T1 sequence (P30988 25-474)
T2 sequence (O60896 24-148 partner): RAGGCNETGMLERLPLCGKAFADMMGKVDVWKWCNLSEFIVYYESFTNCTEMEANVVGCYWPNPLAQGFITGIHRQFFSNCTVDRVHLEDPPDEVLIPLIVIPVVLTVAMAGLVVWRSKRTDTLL
Method in brief: as §1

EC50 [1] [pM]	Ratio (selectivity hAMYR vs hCTR, ratio of EC50 values at the two receptors) [2]	EC50 [2] [pM]	Structure (SMILES)
568	4.8	118	CC[C@H](C)[C@H](NC(=O)[C@@H]1CCCN1C(=O)CNC(=O)[C@H](Cc1ccccc1)NC(=O)[C@H](CC(N)=O)NC(=O)[C@H](CC(N)=O)NC(=O)[C@H](CO)NC(=O)[C@H](CO)NC(=O)[C@H](Cc1c[nH]cn1)NC(=O)C(C)(C)NC(=O)[C@H](CC(C)C)NC(=O)[C@H](Cc1ccccc1)NC(=O)[C@H](CCC(=O)O)NC(=O)[C@H](C)NC(=O)[C@H](CC(C)C)NC(=O)[C@H](CCCNC(=N)N)NC(=O)[C@H](CCC(N)=O)NC(=O)[C@@H](NC(=O)[C@H](C)NC(=O)[C@@H]1CSSC[C@H](NC(=O)[C@H](CCCCN)NC(=O)[C@@H](N)CCCCNC(=O)CC[C@H](NC(=O)CCCCCCCCCCCCCCCCC(=O)O)C(=O)O)C(=O)N[C@@H](CC(N)=O)C(=O)N[C@@H]([C@@H](C)O)C(=O)N[C@@H](C)C(=O)N[C@@H]([C@@H](C)O)C(=O)N1)[C@@H](C)O)C(=O)N[C@@H](CC(C)C)C(=O)N1CCC[C@H]1C(=O)N1CCC[C@H]1C(=O)N[C@H](C(=O)N[C@@H](CC(N)=O)C(=O)N[C@H](C(=O)NCC(=O)N[C@@H](CO)C(=O)N[C@@H](CC(N)=O)C(=O)N[C@H](C(=O)N[C@@H](Cc1ccc(O)cc1)C(N)=O)[C@@H](C)O)C(C)C)[C@@H](C)O [Peptide 128] (H-K([γGlu-C18 diacid])KCNTATCATQRLAEFL[Aib]HSSNNFGPILPPTNVGSNTY-NH2; disulfide 3-8; N-terminus assumed)
6690	15	446	CC[C@H](C)[C@H](NC(=O)[C@@H]1CCCN1C(=O)CNC(=O)[C@H](Cc1ccccc1)NC(=O)[C@H](CC(N)=O)NC(=O)[C@H](Cc1c[nH]cn1)NC(=O)[C@H](CO)NC(=O)[C@H](CO)NC(=O)[C@H](Cc1c[nH]cn1)NC(=O)C(C)(C)NC(=O)[C@H](CC(C)C)NC(=O)[C@H](Cc1ccccc1)NC(=O)[C@H](CCC(=O)O)NC(=O)[C@H](C)NC(=O)[C@H](CC(C)C)NC(=O)[C@H](CCCNC(=N)N)NC(=O)[C@H](CCC(N)=O)NC(=O)[C@@H](NC(=O)[C@H](C)NC(=O)[C@@H]1CSSC[C@H](NC(=O)[C@H](CCCCN)NC(=O)[C@@H](N)CCCCNC(=O)CC[C@H](NC(=O)CCCCCCCCCCCCCCCCC(=O)O)C(=O)O)C(=O)N[C@@H](CC(N)=O)C(=O)N[C@@H]([C@@H](C)O)C(=O)N[C@@H](C)C(=O)N[C@@H]([C@@H](C)O)C(=O)N1)[C@@H](C)O)C(=O)N[C@@H](CC(C)C)C(=O)N1CCC[C@H]1C(=O)N1CCC[C@H]1C(=O)N[C@H](C(=O)N[C@@H](CC(N)=O)C(=O)N[C@H](C(=O)NCC(=O)N[C@@H](CO)C(=O)N[C@@H](CC(N)=O)C(=O)N[C@H](C(=O)N[C@@H](Cc1ccc(O)cc1)C(N)=O)[C@@H](C)O)C(C)C)[C@@H](C)O [Peptide 130] (H-K([γGlu-C18 diacid])KCNTATCATQRLAEFL[Aib]HSSHNFGPILPPTNVGSNTY-NH2; disulfide 3-8; N-terminus assumed)
15100	20.5	737	CC[C@H](C)[C@H](NC(=O)[C@@H]1CCCN1C(=O)CNC(=O)[C@H](Cc1ccccc1)NC(=O)[C@H](CC(N)=O)NC(=O)[C@H](Cc1c[nH]cn1)NC(=O)[C@H](CO)NC(=O)[C@H](CO)NC(=O)[C@H](Cc1c[nH]cn1)NC(=O)C(C)(C)NC(=O)[C@H](CC(C)C)NC(=O)[C@H](Cc1ccccc1)NC(=O)[C@H](CC(N)=O)NC(=O)[C@H](C)NC(=O)[C@H](CC(C)C)NC(=O)[C@H](CCCNC(=N)N)NC(=O)[C@H](CCC(N)=O)NC(=O)[C@@H](NC(=O)[C@H](C)NC(=O)[C@@H]1CSSC[C@H](NC(=O)[C@H](CCCCN)NC(=O)[C@@H](N)CCCCNC(=O)CC[C@H](NC(=O)CCCCCCCCCCCCCCCCC(=O)O)C(=O)O)C(=O)N[C@@H](CC(N)=O)C(=O)N[C@@H]([C@@H](C)O)C(=O)N[C@@H](C)C(=O)N[C@@H]([C@@H](C)O)C(=O)N1)[C@@H](C)O)C(=O)N[C@@H](CC(C)C)C(=O)N1CCC[C@H]1C(=O)N1CCC[C@H]1C(=O)N[C@H](C(=O)N[C@@H](CC(N)=O)C(=O)N[C@H](C(=O)NCC(=O)N[C@@H](CO)C(=O)N[C@@H](CC(N)=O)C(=O)N[C@H](C(=O)N[C@@H](Cc1ccc(O)cc1)C(N)=O)[C@@H](C)O)C(C)C)[C@@H](C)O [Peptide 131] (H-K([γGlu-C18 diacid])KCNTATCATQRLANFL[Aib]HSSHNFGPILPPTNVGSNTY-NH2; disulfide 3-8)
3850	9.3	416	CC[C@H](C)[C@H](NC(=O)[C@@H]1CCCN1C(=O)CNC(=O)[C@H](Cc1ccccc1)NC(=O)[C@H](CC(N)=O)NC(=O)[C@@H]1CCCN1C(=O)[C@H](CO)NC(=O)[C@H](CO)NC(=O)[C@H](Cc1c[nH]cn1)NC(=O)C(C)(C)NC(=O)[C@H](CC(C)C)NC(=O)[C@H](Cc1ccccc1)NC(=O)[C@H](CC(N)=O)NC(=O)[C@H](C)NC(=O)[C@H](CC(C)C)NC(=O)[C@H](CCCNC(=N)N)NC(=O)[C@H](CCC(N)=O)NC(=O)[C@@H](NC(=O)[C@H](C)NC(=O)[C@@H]1CSSC[C@H](NC(=O)[C@H](CCCCN)NC(=O)[C@@H](N)CCCCNC(=O)CC[C@H](NC(=O)CCCCCCCCCCCCCCCCC(=O)O)C(=O)O)C(=O)N[C@@H](CC(N)=O)C(=O)N[C@@H]([C@@H](C)O)C(=O)N[C@@H](C)C(=O)N[C@@H]([C@@H](C)O)C(=O)N1)[C@@H](C)O)C(=O)N[C@@H](CC(C)C)C(=O)N1CCC[C@H]1C(=O)N1CCC[C@H]1C(=O)N[C@H](C(=O)N[C@@H](CC(N)=O)C(=O)N[C@H](C(=O)NCC(=O)N[C@@H](CO)C(=O)N[C@@H](CC(N)=O)C(=O)N[C@H](C(=O)N[C@@H](Cc1ccc(O)cc1)C(N)=O)[C@@H](C)O)C(C)C)[C@@H](C)O [Peptide 132] (H-K([γGlu-C18 diacid])KCNTATCATQRLANFL[Aib]HSSPNFGPILPPTNVGSNTY-NH2; disulfide 3-8)
2580	6.8	378	CC[C@H](C)[C@H](NC(=O)[C@@H]1CCCN1C(=O)CNC(=O)[C@H](Cc1ccccc1)NC(=O)[C@H](CC(N)=O)NC(=O)[C@H](CO)NC(=O)[C@H](CO)NC(=O)[C@H](CO)NC(=O)[C@H](Cc1c[nH]cn1)NC(=O)C(C)(C)NC(=O)[C@H](CC(C)C)NC(=O)[C@H](Cc1ccccc1)NC(=O)[C@H](CC(N)=O)NC(=O)[C@H](C)NC(=O)[C@H](CC(C)C)NC(=O)[C@H](CCCNC(=N)N)NC(=O)[C@H](CCC(N)=O)NC(=O)[C@@H](NC(=O)[C@H](C)NC(=O)[C@@H]1CSSC[C@H](NC(=O)[C@H](CCCCN)NC(=O)[C@@H](N)CCCCNC(=O)CC[C@H](NC(=O)CCCCCCCCCCCCCCCCC(=O)O)C(=O)O)C(=O)N[C@@H](CC(N)=O)C(=O)N[C@@H]([C@@H](C)O)C(=O)N[C@@H](C)C(=O)N[C@@H]([C@@H](C)O)C(=O)N1)[C@@H](C)O)C(=O)N[C@@H](CC(C)C)C(=O)N1CCC[C@H]1C(=O)N1CCC[C@H]1C(=O)N[C@H](C(=O)N[C@@H](CC(N)=O)C(=O)N[C@H](C(=O)NCC(=O)N[C@@H](CO)C(=O)N[C@@H](CC(N)=O)C(=O)N[C@H](C(=O)N[C@@H](Cc1ccc(O)cc1)C(N)=O)[C@@H](C)O)C(C)C)[C@@H](C)O [Peptide 133] (H-K([γGlu-C18 diacid])KCNTATCATQRLANFL[Aib]HSSSNFGPILPPTNVGSNTY-NH2; disulfide 3-8; N-terminus assumed)
